From patent publication US10071090B2 (priority 2014, dated 2018)

Key:
[1] = Solubility of oxymorphone in adhesive systems; type: physicochemical; conditions: in general
Text: A variety of adhesive systems, enhancers and cosolvents were employed to observe permeation differences within these systems. In general, solubility in acrylic adhesives (i.e. Duro-Tak®) was higher, and thus the driving force out of the patch would be relatively lower. Solubility in silicone adhesives was lower and thus provided a much higher driving constant out of the formulation and into the skin; however, due to the relatively lower solubility, a solubility enhancer that also assisted in solubilising the skin was utilized.

[2] = in vivo, po; cited from earlier work

In the case of `CN1CC[C@]23c4c5ccc(O)c4O[C@H]2C(=O)CC[C@@]3(O)[C@H]1C5` [Oxymorphone], the “Solubility in silicone adhesives” value ([1]; compared with acrylic adhesives) is given as “lower”, the “solubility in acrylic adhesives (i.e. Duro-Tak®)” value ([1]; compared with silicone adhesives) is given as “higher” and the Bioavailability [2] is given as 10%.

In the case of `COc1ccc2c3c1O[C@H]1C(=O)CC[C@@]4(O)[C@@H](C2)N(C)CC[C@]314` [Oxycodone], the Bioavailability [2] is given as 87%.

In the case of `COc1ccc2c3c1O[C@H]1C(=O)CC[C@H]4[C@@H](C2)N(C)CC[C@]314` [Hydrocodone], the Bioavailability [2] is given as 80%.
